ChEMBL document CHEMBL5505969, “Discovery of new piperaquine hybrid analogs linked by triazolopyrimidine and pyrazolopyrimidine scaffolds with antiplasmodial and transmission blocking activities” (Eur J Med Chem, 2024)
Active and inactive are the calls of the source. No cut-off for these calls is given here.

Assays:
Plasmodium falciparum [1] = experiment: (§1) Resistance index, ratio of IC50 for antiplasmodial activity against sorbitol-synchronized ring stage chloroquine, mefloquine and pyrimethamine resistant Plasmodium falciparum Dd2 harboring N86F/M74I/ N75E/K75T mutation in MDR1 gene, N51I/C59R/S108N mutation in DHFR gene and S436F/A437G/A613S mutation in DHPS gene infected in erythrocytes to IC50 for antiplasmodial activity against sorbitol-synchronized ring stage chloroquine sensitive Plasmodium falciparum 3D7 infected in erythrocytes; assay type: functional
[2] = Cytotoxicity against human HepG2 cells assessed as reduction in cell viability incubated for 72 hrs by MTT assay; assay type: toxicity, cell-based
Plasmodium falciparum [3] = experiment: Antiplasmodial activity against sorbitol-synchronized ring stage 2-(1,1-difluoroethyl)-5-methyl-N-(4-(pentafluoro-l6-sulfaneyl)phenyl)-[1,2,4]triazolo[1,5-a]pyrimidin-7-amine resistant Plasmodium falciparum Dd2 infected in erythrocytes measured after 48 hrs by SYBR green dye based fluorescence analysis; assay type: functional, organism-based; settings: Dd2, Erythrocyte
Plasmodium falciparum [4] = experiment: Antiplasmodial activity against GFP expressing sorbitol-synchronized ring stage laboratory adapted Plasmodium falciparum 3D7HT assessed as reduction in infectivity by measuring inhibition of gametocyte formation at 10 uM treated for 72 hrs followed by replacement with fresh media without compound for 24 hrs and measured on day 4 by giemsa staining based microscopic analysis; assay type: functional
Plasmodium falciparum [5] = experiment: (§2) Antiplasmodial activity against sorbitol-synchronized ring stage chloroquine, mefloquine and pyrimethamine resistant Plasmodium falciparum Dd2 harboring N86F/M74I/ N75E/K75T mutation in MDR1 gene, N51I/C59R/S108N mutation in DHFR gene and S436F/A437G/A613S mutation in DHPS gene infected in erythrocytes measured after 48 hrs by SYBR green dye based fluorescence analysis; assay type: functional, organism-based; settings: Dd2, Erythrocyte
[6] = target: T1, Dihydroorotate dehydrogenase (quinone), mitochondrial (Plasmodium falciparum (isolate 3D7)) (UniProt Q08210); experiment: Inhibition of Plasmodium falciparum DHODH at 100 uM measured over 60 secs by DCIP dye based colorimetric assay relative to control; settings: time > 60.0 sec
T1 sequence (whole entry): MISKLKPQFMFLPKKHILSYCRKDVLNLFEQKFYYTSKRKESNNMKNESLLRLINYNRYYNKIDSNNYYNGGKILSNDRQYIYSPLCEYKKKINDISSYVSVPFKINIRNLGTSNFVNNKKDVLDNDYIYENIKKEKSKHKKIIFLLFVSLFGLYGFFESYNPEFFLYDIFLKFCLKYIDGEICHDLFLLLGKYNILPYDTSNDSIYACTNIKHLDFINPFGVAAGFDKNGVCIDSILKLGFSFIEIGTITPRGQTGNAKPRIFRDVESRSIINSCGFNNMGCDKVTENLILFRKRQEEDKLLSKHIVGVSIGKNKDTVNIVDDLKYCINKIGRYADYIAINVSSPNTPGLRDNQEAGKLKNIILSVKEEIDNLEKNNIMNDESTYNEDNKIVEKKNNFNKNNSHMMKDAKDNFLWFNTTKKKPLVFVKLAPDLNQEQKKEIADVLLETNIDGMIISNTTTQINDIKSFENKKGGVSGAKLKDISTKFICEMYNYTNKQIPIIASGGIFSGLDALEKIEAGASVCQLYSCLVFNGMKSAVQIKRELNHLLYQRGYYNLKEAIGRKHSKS

Plasmodium berghei = experiment: Antiplasmodial activity against GFP-expressing Plasmodium berghei HSP70 infected in CD-1 mouse assessed as inhibition of ookinete formation at 10 uM measured after 22 hrs by giemsa staining based microscopic analysis; assay type: functional; settings: read-out: INH
[7] = target: T1, Dihydroorotate dehydrogenase (quinone), mitochondrial (Plasmodium falciparum (isolate 3D7)); experiment: Inhibition of Plasmodium falciparum DHODH assessed as residual activity at 100 uM measured over 60 secs by DCIP dye based colorimetric assay relative to control; settings: time > 60.0 sec
Plasmodium falciparum [8] = experiment: (§3) Resistance index, ratio of IC50 for antiplasmodial activity against sorbitol-synchronized ring stage 2-(1,1-difluoroethyl)-5-methyl-N-(4-(pentafluoro-l6-sulfaneyl)phenyl)-[1,2,4]triazolo[1,5-a]pyrimidin-7-amine resistant Plasmodium falciparum Dd2 infected in erythrocytes to IC50 for antiplasmodial activity against sorbitol-synchronized ring stage chloroquine sensitive Plasmodium falciparum 3D7 infected in erythrocytes; assay type: functional
Plasmodium falciparum [9] = experiment: as §2, with “atovaquone” for “chloroquine, mefloquine and pyrimethamine”, “TM90C6B” for “Dd2”, “Y268S mutation in CYTB gene, Y184F” for “N86F/M74I/ N75E/K75T”, “S436F/A437G/A581G” for “S436F/A437G/A613S”; assay type: functional, organism-based; settings: Erythrocyte
[10] = Selectivity index, ratio of CC50 for human HepG2 cells to IC50 for antiplasmodial activity against sorbitol-synchronized ring stage chloroquine sensitive Plasmodium falciparum 3D7 infected in erythrocytes; assay type: toxicity, cell-based; settings: Plasmodium falciparum 3D7 in erythrocytes, read-out: Ratio CC50/IC50
Plasmodium falciparum [11] = experiment: as §3, with “MMV848” for “2-(1,1-difluoroethyl)-5-methyl-N-(4-(pentafluoro-l6-sulfaneyl)phenyl)-[1,2,4]triazolo[1,5-a]pyrimidin-7-amine”, “3D7” for “Dd2”; assay type: functional
Plasmodium falciparum [12] = experiment: Antiplasmodial activity against sorbitol-synchronized ring stage chloroquine sensitive Plasmodium falciparum 3D7 infected in erythrocytes measured after 48 hrs by SYBR green dye based fluorescence analysis; assay type: functional, organism-based; settings: 3D7, Erythrocyte
Plasmodium falciparum [13] = experiment: Antiplasmodial activity against sorbitol-synchronized ring stage chloroquine resistant Plasmodium falciparum K1 infected in erythrocytes measured after 48 hrs by SYBR green dye based fluorescence analysis; assay type: functional, organism-based; settings: K1, Erythrocyte
Plasmodium falciparum [14] = experiment: as §1, with “atovaquone” for “chloroquine, mefloquine and pyrimethamine”, “TM90C6B” for “Dd2”, “Y268S mutation in CYTB gene, Y184F” for “N86F/M74I/ N75E/K75T”, “S436F/A437G/A581G” for “S436F/A437G/A613S”; assay type: functional
Plasmodium falciparum [15] = experiment: Antiplasmodial activity against sorbitol-synchronized ring stage MMV848 resistant Plasmodium falciparum 3D7 infected in erythrocytes measured after 48 hrs by SYBR green dye based fluorescence analysis; assay type: functional, organism-based; settings: 3D7, Erythrocyte
[16] = target: T2, Dihydroorotate dehydrogenase (quinone), mitochondrial (Plasmodium falciparum (isolate 3D7), UniProt Q08210); experiment: Inhibition of Plasmodium falciparum DHODH
T2 sequence (Q08210 whole entry): T1 sequence (whole entry)

Plasmodium falciparum [17] = experiment: Potency index, ratio of chloroquine IC50 to test compound IC50 for antiplasmodial activity chloroquine-resistant against Plasmodium falciparum W2 by anti-[…] incorporation assay; assay type: functional
Plasmodium falciparum [18] = experiment: as §3, with “chloroquine” for “2-(1,1-difluoroethyl)-5-methyl-N-(4-(pentafluoro-l6-sulfaneyl)phenyl)-[1,2,4]triazolo[1,5-a]pyrimidin-7-amine”, “K1” for “Dd2”; assay type: functional
Plasmodium falciparum [19] = experiment: Antiplasmodial activity against Plasmodium falciparum 3D7; assay type: functional, organism-based
[20] = target: T2, Dihydroorotate dehydrogenase (quinone), mitochondrial; experiment: Inhibition of Plasmodium falciparum DHODH measured over 60 secs by DCIP dye based colorimetric assay
Plasmodium falciparum [21] = experiment: Antiplasmodial activity against Plasmodium falciparum infected in erythrocytes assessed as reduction in parasite growth at 500 nM measured until 24 hrs; assay type: functional, organism-based; settings: Erythrocyte
[22] = Ratio of IC50 for Plasmodium falciparum infected in erythrocytes measured after 24 hrs by SYBR green dye based fluorescence assay to IC50 for Plasmodium falciparum infected in erythrocytes measured after 72 hrs by SYBR green dye based fluorescence assay; assay type: functional, Erythrocyte
Plasmodium falciparum [23] = experiment: Antiplasmodial activity against Plasmodium falciparum infected in erythrocytes assessed as induction of parasite death by measuring appearance of multiple pyknotic nuclei at 10 uM measured after 24 to 72 hrs; assay type: functional, organism-based; settings: Erythrocyte, time 24-72 hrs
Plasmodium falciparum [24] = experiment: Antiplasmodial activity against Plasmodium falciparum infected in erythrocytes assessed as reduction in parasite growth at 10 uM measured within 24 hrs; assay type: functional, organism-based; settings: Erythrocyte
Plasmodium falciparum [25] = experiment: Potency index, ratio of chloroquine IC50 to test compound IC50 for antiplasmodial activity against sorbitol-synchronized ring stage chloroquine resistant Plasmodium falciparum K1 infected in erythrocytes measured after 48 hrs by SYBR green dye based fluorescence analysis; assay type: functional, Erythrocyte
Plasmodium falciparum [26] = experiment: Antiplasmodial activity against Plasmodium falciparum infected in erythrocytes assessed as induction of parasite death by measuring irreversible chromatin condensation with appearance of pyknotic nuclei at 300 nM measured after 24 hrs; assay type: functional, organism-based; settings: Erythrocyte

Structure (SMILES)	CC50 at 72 h [2] [nM]	inhibition at 10 µM (Plasmodium falciparum [4]) [%]	inhibition [6] [%]	Percent inhibition of ookinete formation at 10 µM (Plasmodium berghei) [%]	Activity [7] [%]	selectivity ratio [10]	IC50 (Plasmodium falciparum [12]) [nM]	IC50 (Plasmodium falciparum [13]) [nM]	also measured
Cc1cc(NCCCCCCCNc2ccnc3cc(Cl)ccc23)n2ncnc2n1	16000	2	< 50	30	73.5	146	110	300	Ratio IC50 (Plasmodium falciparum [1]): 2.9; IC50 (Plasmodium falciparum [3]): 230 nM; IC50 (Plasmodium falciparum [5]): 320 nM; Ratio IC50 (Plasmodium falciparum [8]): 2.1; IC50 (Plasmodium falciparum [9]): 200 nM; Ratio IC50 (Plasmodium falciparum [11]): 1.1; Ratio IC50 (Plasmodium falciparum [14]): 2.2; IC50 (Plasmodium falciparum [15]): 120 nM
Cc1cc(Nc2ccc3ccccc3c2)n2nc(C(F)(F)F)nc2n1									IC50 [16]: 700 nM; Ratio IC50 (Plasmodium falciparum [17]): 10
Cc1cc(NCCCCNc2ccnc3cc(Cl)ccc23)n2nc(C)cc2n1	> 100000		< 50	22	89.4	> 1570			
Cc1cc(Nc2ccc(S(F)(F)(F)(F)F)cc2)n2nc(C(C)(F)F)nc2n1 [DSM-265]					< 10		4		IC50 (Plasmodium falciparum [3]): 12 nM; Ratio IC50 (Plasmodium falciparum [8]): 3
Cc1cc(NCCCCNc2ccnc3cc(Cl)ccc23)n2nc(C(F)(F)F)nc2n1	> 25000	43	< 50	42	80.8	> 81	310	300	Ratio IC50 (Plasmodium falciparum [18]): 1
Clc1ccc2c(N3CCN(CCCN4CCN(c5ccnc6cc(Cl)ccc56)CC4)CC3)ccnc2c1 [PIPERAQUINE]									IC50 (Plasmodium falciparum [19]): 60 nM
O=C1C(O)=C([C@H]2CC[C@H](c3ccc(Cl)cc3)CC2)C(=O)c2ccccc21 [ATOVAQUONE]				78			1		IC50 (Plasmodium falciparum [9]): > 1000 nM
COc1cc(NC(C)CCCN)c2ncccc2c1 (stereo not drawn) [PRIMAQUINE]		86							
Cc1cc(NCCCCCCCNc2ccnc3cc(Cl)ccc23)n2nc(C(F)(F)F)nc2n1	13000	69	84	20	16.4	33	400		IC50 [20]: 4800 nM; Ratio IC50 (Plasmodium falciparum [1]): 0.8; IC50 (Plasmodium falciparum [5]): 330 nM
Cc1cc(N2CCN(c3ccnc4cc(Cl)ccc34)CC2)n2nc(C)nc2n1			< 50		93		> 10000		
Cc1cc(N2CCN(c3ccnc4cc(Cl)ccc34)CC2)n2nc(C(F)(F)F)nc2n1			< 50		105		7000		
CCc1nc(N)nc(N)c1-c1ccc(Cl)cc1 [PYRIMETHAMINE]									Activity (Plasmodium falciparum [21]): inactive; Ratio IC50 [22]: 3
CCN(CC)CCCC(C)Nc1ccnc2cc(Cl)ccc12 (stereo not drawn) [CHLOROQUINE]	398000								
Cc1cc(N2CCN(c3ccnc4cc(Cl)ccc34)CC2)n2nc(C)cc2n1			< 50		108		4400		
Cc1cc(NCCCCCCCNc2ccnc3cc(Cl)ccc23)n2nc(C)nc2n1	17000	85.8	< 50	0	78.8	142	120	210	Ratio IC50 (Plasmodium falciparum [1]): 1.4; IC50 (Plasmodium falciparum [3]): 150 nM; IC50 (Plasmodium falciparum [5]): 170 nM; Ratio IC50 (Plasmodium falciparum [8]): 1.3; IC50 (Plasmodium falciparum [9]): 180 nM; Ratio IC50 (Plasmodium falciparum [11]): 0.4; Ratio IC50 (Plasmodium falciparum [14]): 1.5; IC50 (Plasmodium falciparum [15]): 50 nM
Cc1cc(NCCCCCCCNc2ccnc3cc(Cl)ccc23)n2nc(C)cc2n1	9700	66.5	< 50	43	89.4	211	46	71	Ratio IC50 (Plasmodium falciparum [1]): 0.8; IC50 (Plasmodium falciparum [3]): 50 nM; IC50 (Plasmodium falciparum [5]): 38 nM; Activity (Plasmodium falciparum [23]): Active; Activity (Plasmodium falciparum [24]): Active; Ratio IC50 (Plasmodium falciparum [18]): 1.5; Ratio IC50 (Plasmodium falciparum [8]): 1; Ratio IC50 [22]: 0.8; IC50 (Plasmodium falciparum [9]): 40 nM; Ratio IC50 (Plasmodium falciparum [11]): 0.4; Ratio IC50 (Plasmodium falciparum [25]): 3; Ratio IC50 (Plasmodium falciparum [14]): 0.9; IC50 (Plasmodium falciparum [15]): 20 nM
Cc1cc(NCCCNc2ccnc3cc(Cl)ccc23)n2nc(C)nc2n1	110000	50	< 50	23	97	131	840	640	Ratio IC50 (Plasmodium falciparum [18]): 0.8
Cc1cc(NCCCNc2ccnc3cc(Cl)ccc23)n2nc(C(F)(F)F)nc2n1	113000		< 50		51.5	168	673	3000	Ratio IC50 (Plasmodium falciparum [18]): 4.5
C[C@H]1[C@H](OC(=O)CCC(=O)O)O[C@@H]2O[C@@]3(C)CC[C@H]4[C@H](C)CC[C@@H]1[C@@]24OO3 [ARTESUNATE]									Activity (Plasmodium falciparum [26]): Active; Ratio IC50 [22]: 1.04
Cc1cc(NCCCCNc2ccnc3cc(Cl)ccc23)n2nc(C)nc2n1	> 25000		< 50	0	92	> 100			
